# Values quoted from earlier work as cited in US20130156896A1, “CELLULOSE-BASED FOOD CASING HAVING A FUNGICIDAL FINISH AND A METHOD FOR PROTECTING CELLULOSE-BASED FOOD CASINGS FROM MOLD INFESTATION” (CASETECH GMBH, priority 2011, published 2013).
# How the values were obtained:
# [1] = tested on: Staphylococcus aureus; settings: for example against Staphylococcus aureus
# [2] = animal testing
# [3] = tested on: microorganisms; settings: known from the literature
compound,measurement,setting,value
CC(C)c1cc2c(c(O)c1O)[C@@]1(C(=O)O)CCCC(C)(C)[C@@H]1CC2 [carnosic acid],antimicrobial activity,[1],antimicrobial activity
same,chemoprotective effect against carcinogens,[2],chemoprotective effect
"COc1ccc(O)c(C(C)(C)C)c1 [BHA, butylated hydroxyanisole]",activity against microorganisms,[3],relatively weak activity
